From patent US20260356814A1, “INDOLINE DERIVATIVES AS SEROTONERGIC AGENTS USEFUL FOR THE TREATMENT OF DISORDERS RELATED THERETO” (MINDSET PHARMA INC., priority 2022, published 2026) come the findings set out here.

What all share (type): in vitro ADME
Common to all, as to conditions: 37° C.

One series can be described thus: Plasma stability, human. On the procedure: (§1) • a. […] The final concentration of organic solvents was 0.5%. The assay was performed in duplicated. • b.
(§2) All calculations were carried out using Microsoft Excel.

A further series in a line: Plasma stability, mouse. The procedure:
as §1, §2

A further series in a line: Plasma stability, rat. The procedure: as §1, §2
Where [1] appears, read: 30 min, read-out: Remaining Percentage (%), 30 min.
Where [2] appears, read: 60 min, read-out: Remaining Percentage (%), 60 min.
Where [3] appears, read: >255.85 if remaining at 60 min greater than 85%.

Broadly, the fraction remaining is what is left of the initial amount, in per cent. As usually defined, the half-life is how long it takes for the measured level to halve. A lower half-life goes with rapid decline. Regarding `CC(C)[N+](C)(CCOC(=O)C1c2ccccc2Oc2ccccc21)C(C)C` [Propantheline, reference compound], the “Remaining Percentage (%), 0 min” value in the series “Plasma stability, human” (0 min) worked out at 100.00%; in the series “Plasma stability, mouse” (0 min) it was 100.00%. Moreover, the amount remaining at 0.5 h in the series “Plasma stability, human” (setting [1]) was determined as 29%; in “Plasma stability, mouse” (setting [1]), 61.6%. For the same molecule, the share remaining at 1 h in the series “Plasma stability, human” (setting [2]) came to 2.58%. For the same molecule, the half-life is 11.4 min in the series “Plasma stability, human” (setting [3]) and 37.1 min in the series “Plasma stability, mouse” (setting [3]).

Consider `CC[C@H](C)C(=O)O[C@H]1C[C@@H](C)C=C2C=C[C@H](C)[C@H](CC[C@@H]3C[C@@H](O)CC(=O)O3)[C@H]21` [Lovastatin, reference compound], for which the “Remaining Percentage (%), 0 min” value in the series “Plasma stability, rat” (0 min) is given as 100.00%. Moreover, the fraction remaining at 0.5 h in “Plasma stability, rat” (setting [1]) was found to be 0.61%. Besides, the share remaining at 1 h in “Plasma stability, rat” (setting [2]) stood at 0.33%.
